Measured values reported in US12516056B2, “Compounds for inhibition of janus kinase 1” (MANKIND PHARMA LTD., priority 2019, dated 2026).

Experiments:
Recombinant TYK2 = target: T1, Recombinant TYK2 (Homo sapiens, UniProt P29597); experiment: JAK biochemical assay (LANCE Ultra TR-FRET), TYK2; conditions: recombinant TYK2, TR-FRET; read-out: Biochemical Assay (μM) TYK2
T1 construct: purchased Carna Biosciences
Outline: (§1)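 Kinase reactions ran in buffer of 50 mM HEPES pH 7.5 with 1 mM EGTA, 10 mM MgCl2, 2 mM DTT and 0.01% Tween-20, using recombinant enzyme. Phosphorylated ULight substrate was detected by TR-FRET, and compound effect expressed as % inhibition against vehicle.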

[1] = tested on: STAT5 phosphorylation by GMCSF in TF-1 cells; experiment: JAK cellular assay: STAT5 phosphorylation by GMCSF in TF-1 cells (HTRF); format: cell-based; conditions: Homo sapiens; TF-1 cells, GMCSF 5 ng/ml, pSTAT5 HTRF; read-out: Cell Based Assay (μM) TF-1/GMCSF/pSTAT5
Description: TF-1 cells were starved overnight in OptiMEM medium with 0.5% charcoal stripped fetal bovine serum, 0.1 mM nonessential amino acids (NEAA), 1 mM sodium pyruvate and without phenol red in CO2 incubator maintained at 37° c. Next day, cells were resuspended in RPMI without phenol red and dispensed into a 96 well plate at a final cell density of 1,20,000 cells per well. Compounds were diluted in DMSO and added to cells and incubated for 30 minutes in CO2 incubator maintained at 37° c. Final DMSO concentration in cell based assay was 0.2%. Human recombinant cytokines, IL-6 (30 ng/ml) and GMCSF (5 ng/ml) were added to the plate containing cells along with compound and incubated for 20 minutes with gentle tapping at every 5 minutes once. Compound mediated effects on STAT3 and STAT5 phosphorylation was measured in the lysates prepared by using CISBIO pSTAT3 and pSTAT5 detection kits by HTRF method. Background signal obtained from cells which were not activated with cytokines, was subtracted from vehicle controls and compound treated wells.

[2] = tested on: STAT3 phosphorylation by IL-6 in TF-1 cells; experiment: JAK cellular assay: STAT3 phosphorylation by IL-6 in TF-1 cells (HTRF); format: cell-based; conditions: Homo sapiens, TF-1, TF-1 cells, IL-6 30 ng/ml, pSTAT3 HTRF; read-out: Cell Based Assay (μM) TF-1/IL-6/pSTAT3
Outline: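 TF-1 cells starved overnight in low-serum OptiMEM, then 120,000/well in RPMI, preincubated with compound 30 min at 37 °C (0.2% DMSO final). Stimulation 20 min with IL-6 30 ng/ml (pSTAT3) or GMCSF 5 ng/ml (pSTAT5); lysate phospho-STAT by HTRF, unstimulated background subtracted.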

Recombinant JAK3 = target: T2, Recombinant JAK3 (Homo sapiens, UniProt P52333); experiment: JAK biochemical assay (LANCE Ultra TR-FRET), JAK3; conditions: recombinant JAK3, TR-FRET; read-out: Biochemical Assay (μM) JAK3
T2 construct: purchased Carna Biosciences
T2 sequence (P52333 1-1124): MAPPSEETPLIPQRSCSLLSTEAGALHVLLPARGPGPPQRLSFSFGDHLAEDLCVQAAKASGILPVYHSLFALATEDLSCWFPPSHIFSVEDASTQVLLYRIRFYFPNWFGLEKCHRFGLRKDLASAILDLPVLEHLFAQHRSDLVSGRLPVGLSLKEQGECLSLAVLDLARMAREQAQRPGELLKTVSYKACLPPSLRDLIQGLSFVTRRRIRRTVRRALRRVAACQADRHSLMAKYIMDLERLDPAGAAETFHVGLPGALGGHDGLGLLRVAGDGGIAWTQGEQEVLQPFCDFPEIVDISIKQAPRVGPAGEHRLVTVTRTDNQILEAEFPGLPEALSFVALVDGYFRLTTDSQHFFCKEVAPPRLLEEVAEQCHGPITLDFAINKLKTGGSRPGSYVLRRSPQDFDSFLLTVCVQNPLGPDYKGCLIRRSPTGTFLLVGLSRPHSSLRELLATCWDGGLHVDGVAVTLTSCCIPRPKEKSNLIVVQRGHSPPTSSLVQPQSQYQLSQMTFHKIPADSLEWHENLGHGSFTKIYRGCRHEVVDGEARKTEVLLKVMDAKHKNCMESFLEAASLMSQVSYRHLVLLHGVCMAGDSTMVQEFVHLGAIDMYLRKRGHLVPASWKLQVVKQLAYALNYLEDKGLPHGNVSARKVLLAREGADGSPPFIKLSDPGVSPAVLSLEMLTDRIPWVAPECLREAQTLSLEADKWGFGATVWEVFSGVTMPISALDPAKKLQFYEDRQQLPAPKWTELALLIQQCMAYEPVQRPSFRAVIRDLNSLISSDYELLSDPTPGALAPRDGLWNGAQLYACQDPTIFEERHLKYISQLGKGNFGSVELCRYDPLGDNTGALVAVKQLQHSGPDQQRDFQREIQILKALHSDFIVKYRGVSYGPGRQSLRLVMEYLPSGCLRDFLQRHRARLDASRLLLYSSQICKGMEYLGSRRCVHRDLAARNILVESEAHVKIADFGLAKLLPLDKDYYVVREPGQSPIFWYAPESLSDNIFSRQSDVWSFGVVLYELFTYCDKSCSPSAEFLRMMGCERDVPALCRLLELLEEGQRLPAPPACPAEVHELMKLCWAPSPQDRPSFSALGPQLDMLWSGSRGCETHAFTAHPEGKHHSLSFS
Outline: as §1

Recombinant JAK1 = target: T3, Recombinant JAK1 (Homo sapiens, UniProt P23458); experiment: JAK biochemical assay (LANCE Ultra TR-FRET), JAK1; conditions: recombinant JAK1, TR-FRET; read-out: Biochemical Assay (μM) JAK1
T3 construct: purchased Carna Biosciences
Outline: as §1

Recombinant JAK2 = target: T4, Recombinant JAK2 (Homo sapiens, UniProt O60674); experiment: JAK biochemical assay (LANCE Ultra TR-FRET), JAK2; conditions: recombinant JAK2, TR-FRET; read-out: Biochemical Assay (μM) JAK2
T4 construct: purchased Carna Biosciences
Outline: as §1

T1 sequence (P29597 whole entry): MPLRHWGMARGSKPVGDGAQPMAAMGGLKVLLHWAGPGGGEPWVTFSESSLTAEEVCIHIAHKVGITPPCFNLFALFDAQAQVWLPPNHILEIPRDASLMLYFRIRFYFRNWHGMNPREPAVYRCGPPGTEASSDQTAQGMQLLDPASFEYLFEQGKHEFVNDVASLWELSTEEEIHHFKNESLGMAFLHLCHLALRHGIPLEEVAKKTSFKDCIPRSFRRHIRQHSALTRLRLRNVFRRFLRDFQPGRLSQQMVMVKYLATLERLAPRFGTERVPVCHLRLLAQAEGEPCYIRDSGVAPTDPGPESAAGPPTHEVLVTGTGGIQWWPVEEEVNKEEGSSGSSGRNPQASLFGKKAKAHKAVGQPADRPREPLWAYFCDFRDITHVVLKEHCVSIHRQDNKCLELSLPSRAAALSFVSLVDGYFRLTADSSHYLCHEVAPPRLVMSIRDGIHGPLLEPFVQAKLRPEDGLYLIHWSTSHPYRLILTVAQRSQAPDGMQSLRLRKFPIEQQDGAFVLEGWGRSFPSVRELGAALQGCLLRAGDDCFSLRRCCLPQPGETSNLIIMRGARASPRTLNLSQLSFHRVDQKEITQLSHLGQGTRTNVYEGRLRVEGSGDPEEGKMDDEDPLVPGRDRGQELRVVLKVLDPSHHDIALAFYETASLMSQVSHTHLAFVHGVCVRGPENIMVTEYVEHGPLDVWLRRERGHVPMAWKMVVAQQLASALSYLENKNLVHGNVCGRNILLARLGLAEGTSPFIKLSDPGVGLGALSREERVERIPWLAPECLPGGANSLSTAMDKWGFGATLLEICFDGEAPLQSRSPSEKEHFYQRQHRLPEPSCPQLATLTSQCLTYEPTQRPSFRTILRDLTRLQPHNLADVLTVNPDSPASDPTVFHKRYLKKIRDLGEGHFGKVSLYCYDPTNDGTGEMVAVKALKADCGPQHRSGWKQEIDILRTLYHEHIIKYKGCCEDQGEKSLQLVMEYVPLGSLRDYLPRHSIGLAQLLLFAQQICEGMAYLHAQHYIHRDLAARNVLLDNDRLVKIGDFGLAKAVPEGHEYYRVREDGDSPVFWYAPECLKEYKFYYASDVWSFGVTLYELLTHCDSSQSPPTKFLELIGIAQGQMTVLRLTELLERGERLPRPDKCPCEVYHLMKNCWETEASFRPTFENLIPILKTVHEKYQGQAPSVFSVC
T4 sequence (O60674 whole entry): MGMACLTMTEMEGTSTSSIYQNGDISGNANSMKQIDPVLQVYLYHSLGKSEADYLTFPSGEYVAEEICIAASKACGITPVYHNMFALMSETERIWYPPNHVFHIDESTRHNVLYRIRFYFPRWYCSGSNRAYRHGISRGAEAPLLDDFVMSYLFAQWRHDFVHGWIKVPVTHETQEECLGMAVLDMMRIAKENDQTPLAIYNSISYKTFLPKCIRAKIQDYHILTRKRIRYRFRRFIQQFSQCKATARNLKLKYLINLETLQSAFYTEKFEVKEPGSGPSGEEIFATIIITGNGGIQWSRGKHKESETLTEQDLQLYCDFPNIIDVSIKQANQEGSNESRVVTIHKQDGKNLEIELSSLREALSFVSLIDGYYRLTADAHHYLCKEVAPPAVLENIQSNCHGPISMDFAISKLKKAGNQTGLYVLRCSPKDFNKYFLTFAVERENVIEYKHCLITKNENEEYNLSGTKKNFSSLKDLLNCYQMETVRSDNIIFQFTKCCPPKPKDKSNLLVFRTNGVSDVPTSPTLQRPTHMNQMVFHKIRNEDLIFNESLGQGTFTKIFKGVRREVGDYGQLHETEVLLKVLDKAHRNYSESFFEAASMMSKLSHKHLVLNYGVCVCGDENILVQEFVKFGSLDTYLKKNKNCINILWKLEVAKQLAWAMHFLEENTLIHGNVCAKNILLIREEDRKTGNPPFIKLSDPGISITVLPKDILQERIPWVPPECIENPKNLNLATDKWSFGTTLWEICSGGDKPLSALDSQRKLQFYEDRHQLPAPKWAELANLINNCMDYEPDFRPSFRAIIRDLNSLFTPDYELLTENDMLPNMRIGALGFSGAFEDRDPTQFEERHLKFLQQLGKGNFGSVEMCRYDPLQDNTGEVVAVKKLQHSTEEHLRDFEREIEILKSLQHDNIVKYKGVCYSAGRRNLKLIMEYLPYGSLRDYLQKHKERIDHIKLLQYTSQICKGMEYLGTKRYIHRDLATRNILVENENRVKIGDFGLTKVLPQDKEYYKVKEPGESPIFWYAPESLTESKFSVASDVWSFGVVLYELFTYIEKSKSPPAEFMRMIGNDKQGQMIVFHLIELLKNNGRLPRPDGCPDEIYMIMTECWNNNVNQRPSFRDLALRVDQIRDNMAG
T3 sequence (P23458 whole entry): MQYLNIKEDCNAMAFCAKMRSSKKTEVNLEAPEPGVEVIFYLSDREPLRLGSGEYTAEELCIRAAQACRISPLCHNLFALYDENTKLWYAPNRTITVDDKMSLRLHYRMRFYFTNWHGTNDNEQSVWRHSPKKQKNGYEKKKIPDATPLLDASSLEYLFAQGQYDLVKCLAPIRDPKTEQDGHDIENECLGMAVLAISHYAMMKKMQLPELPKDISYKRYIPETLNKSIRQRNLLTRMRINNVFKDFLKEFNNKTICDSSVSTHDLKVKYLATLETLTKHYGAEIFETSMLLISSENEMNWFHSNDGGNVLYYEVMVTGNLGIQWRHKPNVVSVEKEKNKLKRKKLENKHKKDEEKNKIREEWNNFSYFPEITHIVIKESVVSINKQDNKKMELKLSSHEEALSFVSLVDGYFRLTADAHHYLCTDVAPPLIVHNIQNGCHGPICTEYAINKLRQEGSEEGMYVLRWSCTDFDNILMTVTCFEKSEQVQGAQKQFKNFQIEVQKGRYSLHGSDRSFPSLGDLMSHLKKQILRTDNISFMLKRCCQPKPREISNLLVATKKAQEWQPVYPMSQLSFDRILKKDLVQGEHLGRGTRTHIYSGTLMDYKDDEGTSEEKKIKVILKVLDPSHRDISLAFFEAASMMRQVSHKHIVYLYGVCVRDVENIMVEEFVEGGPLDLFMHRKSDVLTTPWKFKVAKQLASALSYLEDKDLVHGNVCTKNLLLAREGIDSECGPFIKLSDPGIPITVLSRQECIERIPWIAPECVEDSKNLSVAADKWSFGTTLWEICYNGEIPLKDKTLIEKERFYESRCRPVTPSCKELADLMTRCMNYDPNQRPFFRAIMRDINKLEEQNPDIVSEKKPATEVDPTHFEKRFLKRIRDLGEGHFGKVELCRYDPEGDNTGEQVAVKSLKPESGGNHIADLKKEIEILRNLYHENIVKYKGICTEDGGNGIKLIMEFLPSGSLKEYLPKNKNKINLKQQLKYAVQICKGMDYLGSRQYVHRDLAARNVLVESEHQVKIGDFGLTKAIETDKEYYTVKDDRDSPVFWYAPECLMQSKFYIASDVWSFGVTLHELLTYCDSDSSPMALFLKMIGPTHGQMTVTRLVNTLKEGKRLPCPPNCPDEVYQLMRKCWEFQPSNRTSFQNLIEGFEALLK

Row | IC50 (Recombinant TYK2) [µM] | IC50 [1] [µM] | IC50 [2] [µM] | IC50 (Recombinant JAK3) [µM] | IC50 (Recombinant JAK1) [µM] | IC50 (Recombinant JAK2) [µM] | SMILES
1 | > 10 | > 10 | > 1 | < 0.5 | 0.068 | < 0.5 | CS(=O)(=O)Cc1ccc(-n2cc(-c3ccnc4[nH]cnc34)cn2)nc1 [Example 1080, 7-(1-(5-((methylsulfonyl)methyl)pyridin-2-yl)-1H-pyrazol-4-yl)-3H-imidazo[4,5-b]pyridine]
2 | > 10 | > 10 | > 1 | < 0.5 | < 0.5 | > 0.5 | c1cc(-c2cnn(-c3ccc(CC4COC4)cn3)c2)c2nc[nH]c2n1 [Example 1081, 7-(1-(5-((oxetan-3-yl)methyl)pyridin-2-yl)-1H-pyrazol-4-yl)-3H-imidazo[4,5-b]pyridine]
3 | > 10 | > 10 | > 10 | > 0.5 | < 0.5 | > 0.5 | O=S1(=O)CCN(Cc2ccc(-n3cc(-c4ccnc5[nH]cnc45)cn3)nc2)CC1 [Example 1086, 4-((6-(4-(3H-imidazo[4,5-b]pyridin-7-yl)-1H-pyrazol-1-yl)pyridin-3-yl)methyl)thiomorpholine 1,1-dioxide]
4 | > 1 | > 10 | > 1 | < 0.1 | < 0.1 | > 0.1 | CC(C#N)c1ccc(-n2cc(-c3ccnc4[nH]cnc34)cn2)nc1 (stereo not drawn) [Example 1107, 2-(6-(4-(3H-imidazo[4,5-b]pyridin-7-yl)-1H-pyrazol-1-yl)pyridin-3-yl)propanenitrile]
5 | > 1 | > 10 | > 10 | > 0.1 | > 0.1 | > 0.5 | CC(C(N)=O)c1ccc(-n2cc(-c3ccnc4[nH]cnc34)cn2)nc1 (stereo not drawn) [Example 1108, 2-(6-(4-(3H-imidazo[4,5-b]pyridin-7-yl)-1H-pyrazol-1-yl)pyridin-3-yl)propanamide]
6 | > 10 | > 10 | > 1 | < 0.5 | < 0.5 | < 0.5 | N#CC1(c2ccc(-n3cc(-c4ccnc5[nH]cnc45)cn3)nc2)CC1 [Example 1109, 1-(6-(4-(3H-imidazo[4,5-b]pyridin-7-yl)-1H-pyrazol-1-yl)pyridin-3-yl)cyclopropanecarbonitrile]
7 | > 10 | > 10 | > 10 | < 0.5 | < 0.5 | > 0.5 | N#CC(c1ccc(-n2cc(-c3ccnc4[nH]cnc34)cn2)nc1)N1CC(F)(F)C1 (stereo not drawn) [Example 1111, 2-(6-(4-(3H-imidazo[4,5-b]pyridin-7-yl)-1H-pyrazol-1-yl)pyridin-3-yl)-2-(3,3-difluoroazetidin-1-yl)acetonitrile]
8 | > 1 | > 10 | > 1 | > 0.1 | > 0.1 | > 0.5 | CS(=O)(=O)CCC(C#N)c1ccc(-n2cc(-c3ccnc4[nH]cnc34)cn2)nc1 (stereo not drawn) [Example 1116, 2-(6-(4-(3H-imidazo[4,5-b]pyridin-7-yl)-1H-pyrazol-1-yl)pyridin-3-yl)-4-(methylsulfonyl) butanenitrile]
9 | > 1 | > 10 | > 10 | > 0.5 | > 0.5 | > 0.5 | N#CCc1ccnc(-n2cc(-c3ccnc4[nH]cnc34)cn2)c1 [Example 1118, 2-(2-(4-(3H-imidazo[4,5-b]pyridin-7-yl)-1H-pyrazol-1-yl)pyridin-4-yl)acetonitrile]

Continued, compound first:

Row | SMILES | IC50 (Recombinant TYK2) [µM] | IC50 [1] [µM] | IC50 [2] [µM] | IC50 (Recombinant JAK3) [µM] | IC50 (Recombinant JAK1) [µM] | IC50 (Recombinant JAK2) [µM]
10 | O=C(NCC(F)(F)F)n1cc(-c2ccnc3[nH]c(-c4ccccc4)nc23)cn1 [Example 1094, N-(2,2,2-trifluoroethyl)-4-(2-phenyl-3H-imidazo[4,5-b]pyridin-7-yl)-1H-pyrazole-1-carboxamide] | < 0.5 | > 1 | > 1 | < 0.5 | < 0.5 | < 0.5
11 | N#CCc1ccc(-n2cc(-c3ccnc4[nH]cnc34)cn2)cc1 [Example 1099, 2-(4-(4-(3H-imidazo[4,5-b]pyridin-7-yl)-1H-pyrazol-1-yl)phenyl)acetonitrile] | > 1 | > 10 | > 1 | < 0.5 | < 0.5 | < 0.5
12 | N#CC(c1ccc(-n2cc(-c3ccnc4[nH]cnc34)cn2)cc1)C1CC1 (stereo not drawn) [Example 1100, 2-(4-(4-(3H-imidazo[4,5-b]pyridin-7-yl)-1H-pyrazol-1-yl)phenyl)-2-cyclopropylacetonitrile] | > 10 | > 10 | > 10 | > 0.5 | > 0.5 | > 0.5
13 | N#CC(c1ccc(-n2cc(-c3ccnc4[nH]cnc34)cn2)cc1)N1CCOCC1 (stereo not drawn) [Example 1101, 2-(4-(4-(3H-imidazo[4,5-b]pyridin-7-yl)-1H-pyrazol-1-yl)phenyl)-2-morpholinoacetonitrile] | > 10 | > 10 | > 10 | > 1 | > 0.5 | > 0.5
14 | N#CCC(=O)Nc1ccc(-n2cc(-c3ccnc4[nH]cnc34)cn2)cc1 [Example 1102, N-(4-(4-(3H-imidazo[4,5-b]pyridin-7-yl)-1H-pyrazol-1-yl)phenyl)-2-cyanoacetamide] | > 1 | > 10 | > 10 | > 0.5 | < 0.5 | > 0.5
15 | N#CCc1ccc(-n2cc(-c3ccnc4[nH]cnc34)cn2)c(F)c1 [Example 1103, 2-(4-(4-(3H-imidazo[4,5-b]pyridin-7-yl)-1H-pyrazol-1-yl)-3-fluorophenyl)acetonitrile] | > 10 | > 10 | > 1 | > 10 | > 0.5 | > 0.5
16 | N#CCc1cccc(-n2cc(-c3ccnc4[nH]cnc34)cn2)c1 [Example 1106, 2-(3-(4-(3H-imidazo[4,5-b]pyridin-7-yl)-1H-pyrazol-1-yl)phenyl)acetonitrile] | > 1 | > 10 | > 1 | < 0.5 | < 0.5 | < 0.5
17 | N#CC(c1ccc(-n2cc(-c3ccnc4[nH]cnc34)cn2)nc1)N1CCS(=O)(=O)CC1 (stereo not drawn) [Example 1113, 2-(6-(4-(3H-imidazo[4,5-b]pyridin-7-yl)-1H-pyrazol-1-yl)pyridin-3-yl)-2-(1,1-dioxidothiomorpholino)acetonitrile] | > 1 | > 10 | > 10 | > 0.5 | > 1 | > 0.1
